According to patent US9732131B2, “Identification and use of novopeptides for the treatment of cancer” (Calviri Inc., priority 2006, dated 2017):

Tests used:
SW480 tumor cells = test: CTL assay (Cr release) with CTLs activated against novopeptide; assay type: cell-based, human; details: MHC-matched SW480 cells pulsed with peptide vs unpulsed (FIG. 9)
Excerpt: These CTL's may then be tested for reactivity against each of (1) cancerous cells, and (2) non-cancerous cells, each having an MHC or HLA type matching that of the MHC or HLA for which the CTL's are specific.
This is a standard Cr release assay that anyone skilled in the art would be able to do.

[1] = test system: serum antibodies of cancer patients; test: ELISA of cancer patient serum for reactivity with novopeptide; assay type: binding, human; details: serum from 23 cancer patients, standard ELISA (FIG. 8)
Excerpt: Disclosed herein are embodiments of methods for performing novopeptide immunological screens. For example, disclosed herein are embodiments of methods for immunologically screening for the existence of a B cell response to a particular novopeptide comprising assaying for the presence of antibodies reactive to that novopeptide in serum samples from individuals having a type of cancerous cells predicted to express the novopeptide, and for the absence, or presence below a prespecified titer, of such reactive antibodies in serum obtained from one or more individuals not having such cancer. The presence in sera of antibodies reactive to a given novopeptide may be detected and quantified by an ELISA assay in which the novopeptide is adsorbed onto a solid surface, serum is applied, and antibodies remaining bound to the novopeptides after washing are detected. […] However, in at least some individuals, a strong immune response develops late in the tumor progression process. Therefore, serum antibody reactivity to a candidate novopeptide, even if detected in the serum of only one or a few individuals having the cancer type in question, is strong evidence that the novopeptide is expressed in that cancer type.
Novopeptides in the FS database in association with particular tumor cell types were identified. […]

B16 melanoma line = test: Therapeutic gene vaccine encoding SMC1A FS, B16 melanoma mouse tumor model; assay type: in vivo, mice; details: B16 inoculated, gene vaccine one day later
Description: The FS was tested for therapeutic value as a vaccine in the mouse tumor model. The B16 melanoma line was inoculated into mice. One day later the mice were vaccinated with a gene vaccine encoding the FS.

[2] = test system: B16 F10 melanoma tumor cells; test: Prophylactic genetic immunization (gene gun LEE + pGM-CSF), B16 F10 melanoma challenge; assay type: in vivo, C57BL6 mice
4T1 breast tumor cells = test: Prophylactic genetic immunization, 4T1 breast tumor challenge; assay type: in vivo; details: Balb/c mice, 3.2 ng FS 1-78 LEE + 1 μg pGM-CSF, boost, challenge 1×10^4 4T1 cells; vs pGM-CSF alone and FS 6-21 controls (FIG. 5)
Excerpt: Immunization with a single FS-novopeptide identified based on one tumor type may be immunoprotective against a different tumor type in a different mouse strain. Disclosed herein is a procedure for such immunization. Immunization with novopeptides common to multiple types of tumors can result in cross-protection, obviating the requirement that a patient must develop a tumor before a personalized vaccine can be formulated, prepared and administered. Balb/c mice were immunized in the same manner as the C57BL6 mice in Example 2 above, with 3.2 ng of FS 1-78 LEE+1 μg of pGM-CSF, and boosted with the same gene vaccine after 2 weeks. One week after the boost, mice were challenged with 1×10^4 4 T1 breast tumor cells. Seventeen days after 4T1 challenge, tumors started to grow.

[3] = test system: breast tumor driven by mutant rat Her2 gene; test: Prophylactic immunization in BALB-neuT transgenic breast cancer model; assay type: in vivo; details: BALB-neuT mice, genetic prime/boost + KLH-peptide boost; vs non-treated and negative control (FIGS. 13a, 13b)
Excerpt: From the candidate FS peptide sequences disclosed in Table 8 two candidates were selected for in vivo confirmation. The candidates chosen will be referred to herein as FS RBM (SEQ ID NO:232) and FS THAP2 (SEQ ID NO:238), these novopeptides having upstream in-frame portions that align with the mouse Rbm14 and Thap2 genes, respectively. […] The BALB-neuT mouse model is a transgenic mouse breast cancer model, in which all ten mammary glands of a female mouse will develop breast tumor around 20 weeks of age, driven by overexpression of a mutant rat Her2 gene.
FS RBM and FS THAP2 peptides were tested in vivo as candidate peptide components of a prophylactic anti-cancer vaccine. BALB-neuT mice were immunized at 4 to 6 weeks old (primary genetic immunization); 8 to 10 weeks old (boost genetic immunization) and 12 to 14 weeks old (boost peptide immunization). All genetic immunization had the same genetic adjuvant for each bullet for gene gun immunization: 250 ng mixed LTA-LTB/pCMVi and 2.5 μgCpG 2216. All mice received two shots at each ear by gene gun for each genetic immunization. At primary immunization, the vaccine group got two shots of bullets containing 100 ng (high dosage) or 20 ng (low dosage) mixed FS antigen plasmids per bullet; while negative group got two shots of 100 ng mixed empty plasmids for each shot. […]

4T1 tumor cells = test: Prophylactic genetic immunization, BALB/C-4T1 mouse transplant breast tumor model; assay type: in vivo; details: three peptide components given together by genetic immunization at 7 and 13 weeks; challenge 5,000 4T1 cells; vs empty vector (FIG. 15)
Description: Primary genetic immunization was administered with the three peptide components (10 mice) or with empty vector (negative controls, 4 mice) at 7 weeks old and 13 weeks old. Three weeks after the last immunization, all mice were challenged with 5,000 4T1 tumor cells. Tumor size was measured each day after palpable tumors appeared. […] Error bars show standard error.

Q: Which results are given for “AVLLMCQLYQpwmckeyyrll* (AVLLMCQLYQPWMCKEYYRLL; Synthetic or recombinant sequence) [FS 6-21, frameshift novopeptide, 95 bp deletion]”?
A: CTL killing of tumor cells (SW480 tumor cells): able to kill MHC-matched tumor cells pulsed with FS 6-21 peptide; antibody reactivity in sera of cancer patients [1]: one cancer patient in 23

Q: Which “therapeutic effect on tumor size progression” value (B16 melanoma line; relative to control (FIG. 12a)) does the source give for “NGSGCSGVYCHEEPQGEDSSV [FS SMC-1A, novopeptide from a frameshift of the SMC1A gene]” here?
A: The value was “no therapeutic effect on tumor size progression”.

Q: What about the survival time (B16 melanoma line; relative to control (FIG. 12b)) of the same substance?
A: Its survival time is “did not show significant improvement in survival time”.

Q: How did the tumor growth ([2]; C57BL6 mice, gene gun FS 1-78 LEE + 1 μg pGM-CSF, boost 2 weeks later, challenge 1×10^5 B16 F10 cells, vs empty LEE and no immunization (FIG. 4)) turn out when “IPRMQPQASAnhcqllkvmva* (LLMCQCQLYQPWMCKEYYRLL; Synthetic or recombinant peptide) [FS 1-78, frameshift novopeptide from B16-F10, 396 bp deletion in a zinc finger protein gene]” was run?
A: The tumor growth was “tumor growth was markedly delayed”.

Q: And the tumor volume ([2]; highest dose (3.2 ng) of FS 1-78 LEE (FIG. 4))?
A: The tumor volume was “tumor volume decreased after the already delayed rise”.

Q: And the 4T1 tumor growth (4T1 breast tumor cells)?
A: Its 4T1 tumor growth is “significantly delayed and reduced 4T1 tumor growth”.

Q: How did the “inhibition of first tumor onset and tumor progression” value [3] turn out when “FS RBM: mouse novopeptide whose upstream in-frame portion aligns with the mouse Rbm14 gene (GRVIECDVVKGSCQDGEAVHWKSAPGGHRAGDPLTLRAVREGAGM; Synthetic or recombinant sequence)” was run?
A: Its value is “significant prophylactic protection”.

Q: With “SEQ ID NO: 311: second peptide of Table 9, frameshift predicted from mouse microsatellite locus (ICMSPPLLWATLQAPETTSAACKASYRPEGLYL; Synthetic or recombinant sequence)” as the substance, how does the “prophylactic inhibition of tumor progression (tumor size)” value (“prophylactic inhibition” below) (4T1 tumor cells) read?
A: The value was “effective in prophylactically inhibiting tumor progression”.

Q: How did the “prophylactic inhibition” value (4T1 tumor cells) turn out when “SEQ ID NO: 312: third peptide of Table 9, frameshift predicted from mouse microsatellite locus (YFSCDKRCIKHYAGNKSLLTFSGY; Synthetic or recombinant sequence)” was run?
A: Its value is “effective in prophylactically inhibiting tumor progression”.

Q: How did the “prophylactic inhibition” value (4T1 tumor cells) turn out when “SEQ ID NO: 310: first peptide of Table 9, frameshift predicted from mouse microsatellite locus (TLCMEVMLRWNTRELGYLYLQLCFLNTHFLHTSQEEKLLTLGRFLTWTSRCGSFVIRPL; Synthetic or recombinant sequence)” was run?
A: Its value is “effective in prophylactically inhibiting tumor progression”.

Q: “FS THAP2: mouse novopeptide whose upstream in-frame portion aligns with the mouse Thap2 gene (FDFCTHIKSLVTFGLFLRGAGCSPSSFLL; Synthetic or recombinant sequence)” was tested. Which “inhibition of first tumor onset and tumor progression” value [3] did it give?
A: Its value is “significant prophylactic protection”.
